Measured values as given in patent publication US20160081901A1, “COMPOSITIONS AND METHODS FOR HAIR GROWTH” (WUHAN OPTICS VALLEY BRIDGEBIOMED INTERNATIONAL CORPORATION, priority 2013, published 2016).

How the values were obtained:
[1] = target: T1, bradykinin (BK) B2 receptors (Homo sapiens, UniProt P30411); assay: PG secretion in cell supernatant by enzyme immunoassay (EIA), relative to 1 μM bradykinin; type: cell-based; conditions: for PG release (%) compared with BK-1 μM (100%): 1 h, 37° C.
T1 construct: The cell strains used in the study were human primary vein endothelial cells (HPVEC) and human aortic smooth muscle cells (HASMC); endogenous in cells; host or cells: HPVEC and HASMC (human primary cells)
T1 sequence (P30411 1-391): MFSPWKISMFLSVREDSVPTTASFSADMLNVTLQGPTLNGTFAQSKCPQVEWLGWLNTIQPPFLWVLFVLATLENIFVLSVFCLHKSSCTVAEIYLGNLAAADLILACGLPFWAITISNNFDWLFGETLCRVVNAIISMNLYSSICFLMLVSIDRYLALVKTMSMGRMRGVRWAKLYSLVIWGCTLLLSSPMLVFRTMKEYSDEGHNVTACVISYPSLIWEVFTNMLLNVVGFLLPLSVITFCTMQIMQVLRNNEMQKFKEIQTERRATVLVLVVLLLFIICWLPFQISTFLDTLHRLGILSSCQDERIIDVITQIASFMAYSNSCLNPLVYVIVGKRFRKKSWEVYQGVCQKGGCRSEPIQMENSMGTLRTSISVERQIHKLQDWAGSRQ
Experimental: We studied angiotensin II receptor antagonists activating bradykinin (BK) B2 receptors to promote secretion of Prostaglandin. Losartan, candesartan, telmisartan were selected for the study described below, and bradykinin was used as control. Implantation Two cell lines were transferred into T-75 cell culture flask, and then the instructions of PG kit were strictly followed when cells have reached the appropriate density. Day 1 Cells were seeded in 24 well dishes with minimum medium and allowed to adhere overnight. Day 2 Cells were starved in the serum-free conditioned medium. […] The supernatant was collected after incubation for later use. Day 4 24 well dishes were washed and then dyed for 45-90 min, and then the OD value was measured for analysis. Therefore OD values of BK B2 receptor agonists were obtained and the EC50, EMAX were calculated. The cell strains used in the study were human primary vein endothelial cells (HPVEC) and human aortic smooth muscle cells (HASMC).
In order to detect endogenous prostaglandin, enzyme immunoassay (EIA) was used to determine the amount of prostaglandin and subtypes thereof in the cell supernatant described above.

B2 receptor [2] = target: T2, B2 receptor (Homo sapiens, UniProt P30411); assay: Inhibition of PG secretion by B2 receptor inhibitor HOE-140; type: cell-based; conditions: for PG synthesis blocked by 1 μM HOE-140: PG synthesis caused by 10 μM of the compound
T2 construct: The cell strains used in the study were human primary vein endothelial cells (HPVEC) and human aortic smooth muscle cells (HASMC); endogenous in cells; host or cells: HPVEC and HASMC (human primary cells)
T2 sequence (P30411 1-391): T1 sequence (P30411 1-391)
Experimental: The detailed protocol for the elucidation of inhibited PG secretion by B2 receptor inhibitor HOE-140 was shown as follows. Two different cell lines were transferred into T-75 cell culture flask, and then the instructions of PG kit were strictly followed when cells have reached the appropriate density. Day 1. Cells were seeded in 24 well dishes with minimum medium and allowed to adhere overnight. Day 2. Cells were starved in the serum-free conditioned medium. Day 3. […] Cells were incubated at 37° C. for 1 h. The supernatant was collected after incubation for later use. Day 4. 24 well dishes were washed and then dyed for 45-90 min, and then the quantitative analysis was carried out. Therefore OD values (420 nm) of BK B2 receptor agonists were obtained and the EC50, EMAX were calculated.
Therefore we could conclude the angiotensin II type 1 receptor antagonists influence PG secretion via B2 receptor since HOE-140 acts as B2 receptor antagonist

[3] = longest of all commercially available ARBs; cited from earlier work
B2 receptor [4] = target: T2, B2 receptor; assay: PG subtype secretion (EIA) induced by Candesartan in HPVEC and HASMC; type: cell-based; conditions: for PGE2 (%) / PGF-2a (%): 10 μM Candesartan
Text: These percentage values above were all calibrated with respect to bradykinin.

[5] = 10 μM, calibrated with respect to bradykinin
[6] = HASMC, calibrated with respect to bradykinin
[7] = HPVEC, calibrated with respect to bradykinin

CCCc1nc2c(C)cc(-c3nc4ccccc4n3C)cc2n1Cc1ccc(-c2ccccc2C(=O)O)cc1 [Telmisartan, 2-(4-{[4-methyl-6-(1-methyl-1H-1,3-benzodiazol-2-yl)-2-propyl-1H-1,3-benzodiazol-1-yl]methyl}phenyl)benzoic acid]
PG release (%) compared with BK-1 μM (100%) ([1]; 1 μM): 9.01 ± 1.35%
PG release (%) compared with BK-1 μM (100%) ([1]; 3 μM): 13.56 ± 1.56%
PG release (%) compared with BK-1 μM (100%) ([1]; 10 μM): 14.56 ± 2.42%
effect relative to the effect of 1 μM of bradykinin (PG secretion) ([1]; 30 μM): ~25%
PG release (%) compared with BK-1 μM (100%) ([1]; 30 μM): 25.46 ± 3.48%
PG release (%) compared with BK-1 μM (100%) ([1]; 30 nm): 4.48 ± 1.54%
PG release (%) compared with BK-1 μM (100%) ([1]; 100 nm): 4.69 ± 1.78%
PG release (%) compared with BK-1 μM (100%) ([1]; 300 nm): 6.46 ± 3.1%
PG relaease (%) compared with BK-1 μM (100%) (B2 receptor [2]; 10 μM + 1 μM HOE-140): 3 ± 2.03%
PG relaease (%) compared with BK-1 μM (100%) (B2 receptor [2]; 10 μM, without HOE-140): 14.56 ± 2.42%
PG synthesis blocked by 1 μM HOE-140 (B2 receptor [2]): 80%
half-life [3]: about 24 h

CCCCc1nc(Cl)c(CO)n1Cc1ccc(-c2ccccc2-c2nn[nH]n2)cc1 [Losartan, (2-butyl-4-chloro-1-{[2′-(1H-tetrazol-5-yl)biphenyl-4-yl]methyl}-1H-imidazol-5-yl)methanol]
PG release (%) compared with BK-1 μM (100%) ([1]; 1 μM): 8.16 ± 2.43%
PG release (%) compared with BK-1 μM (100%) ([1]; 3 μM): 12.06 ± 4.12%
PG release (%) compared with BK-1 μM (100%) ([1]; 10 μM): 23.18 ± 3.65%
effect relative to the effect of 1 μM of bradykinin (PG secretion) ([1]; 30 μM): ~60%
PG release (%) compared with BK-1 μM (100%) ([1]; 30 μM): 58.17 ± 6.32%
PG release (%) compared with BK-1 μM (100%) ([1]; 30 nm): 0.18 ± 0.74%
PG release (%) compared with BK-1 μM (100%) ([1]; 100 nm): 2.96 ± 2.22%
PG release (%) compared with BK-1 μM (100%) ([1]; 300 nm): 4.69 ± 1.21%
PG relaease (%) compared with BK-1 μM (100%) (B2 receptor [2]; 10 μM + 1 μM HOE-140): 5 ± 4.45%
PG relaease (%) compared with BK-1 μM (100%) (B2 receptor [2]; 10 μM, without HOE-140): 23.18 ± 3.65%
PG synthesis blocked by 1 μM HOE-140 (B2 receptor [2]): 80%

CCOc1nc2cccc(C(=O)O)c2n1Cc1ccc(-c2ccccc2-c2nn[nH]n2)cc1 [Candesartan, 2-ethoxy-1-({4-[2-(2H-1,2,3,4-tetrazol-5-yl)phenyl]phenyl}methyl)-1H-1,3-benzodiazole-7-carboxylic acid]
PG release (%) compared with BK-1 μM (100%) ([1]; 1 μM): 16.51 ± 2.02%
PG release (%) compared with BK-1 μM (100%) ([1]; 3 μM): 26.91 ± 4.13%
effect relative to the effect of 1 μM of bradykinin (PG secretion) ([1]; 10 μM): ~50%
PG release (%) compared with BK-1 μM (100%) ([1]; 10 μM): 46.19 ± 5.65%
effect relative to the effect of 1 μM of bradykinin (PG secretion) ([1]; 30 μM): ~90%
PG release (%) compared with BK-1 μM (100%) ([1]; 30 μM): 86.83 ± 7.21%
PG release (%) compared with BK-1 μM (100%) ([1]; 30 nm): 6.21 ± 2.3%
PG release (%) compared with BK-1 μM (100%) ([1]; 100 nm): 11.27 ± 2.74%
PG release (%) compared with BK-1 μM (100%) ([1]; 300 nm): 12.91 ± 3.08%
Prostaglandin D secretion (B2 receptor [4]; 10 μM): no Prostaglandin D detected
share of PG secretion that was Prostaglandin E2 (B2 receptor [4]; [5]): 30%
share of PG secretion that was Prostaglandin F-2a (B2 receptor [4]; [5]): roughly 6%
PGE2 (%) (B2 receptor [4]; [6]): 37.13 ± 9.85%
PGF-2a (%) (B2 receptor [4]; [6]): 6.21 ± 2.56%
PGE2 (%) (B2 receptor [4]; [7]): 32.54 ± 6.93%
PGF-2a (%) (B2 receptor [4]; [7]): 5.47 ± 3.32%
PG relaease (%) compared with BK-1 μM (100%) (B2 receptor [2]; 10 μM + 1 μM HOE-140): 6 ± 3.12%
PG relaease (%) compared with BK-1 μM (100%) (B2 receptor [2]; 10 μM, without HOE-140): 46.19 ± 5.65%
PG synthesis blocked by 1 μM HOE-140 (B2 receptor [2]): 85%
